The source of these data is the SangsterLogP compilation.

A short description of the data set: method code SF-GLC, from DOI: 10.1007/bf00316585, PMID: 6732504.
As to `C=C(C)C#N`, the logP is 0.68.

`N#CCCO` returned a logP of -0.94.

On to `CCCCCC#N`, for which the lipophilicity (logP) was determined as 1.66.

As for `CC(C)C#N`, the logP is 0.46.

The molecule `N#CCCl` gave a logP of 0.23.

Turning to `CCCCCCCCC#N`, the logP was determined as 3.12.

Consider `CCCCCCCC#N`, for which the logP worked out at 2.75.

For `N#CCCCl`, the logP was determined as 0.18.

Consider `CC(C)CCC#N`, for which the logP is 1.54.

As for `N#CCCCCl`, the log partition coefficient (logP) stood at 0.56.

In turn, `CCCC#N` showed a logP of 0.53.

In turn, `C=CCC#N` yielded a logP of 0.4. This logP and that of the molecule before are within 0.2 log units of each other.

A word on the logP: it is the decadic logarithm of the partition coefficient of the neutral form, usually between octanol and water.
